Laboratory results as given in patent US10551384B2, “MTOR kinase mutations and methods of use thereof” (RUTGERS, THE STATE UNIVERSITY OF NEW JERSEY, priority 2016, dated 2020).
Entries after “also recorded” stand apart in the source; their conditions may differ.

How the values were obtained:
TOR2-mTOR L2185C mutant = experiment: Yeast spotting assay for drug resistance, TOR2-mTOR L2185C; type: cell-based, S. cerevisiae; conditions: 37° C., amphotericin B present (except OSI-027)
Source text: (§1) FIGS. 4A-C. […] (FIG. 4A) Scheme of a yeast-based screen for drug-resistant mutations in mTOR kinase domain. mTOR kinase domain is amplified by error-prone PCR to generate randomized mutations, which is then recombined in frame into the TOR2-mTOR plasmid by gap-repair in tort-dg cells, and is selected on SC-leucine minus plates. Replica plating is then made onto SC-leucine plates containing DMSO or mTOR kinase inhibitor for selection of drug resistant clones. (FIG. 4B) tor2-dg cells expressing WT or mutant TOR2-mTOR were serially diluted by 10-fold and assayed for sensitivity to different mTOR kinase inhibitors in the presence of amphotericin B. Vector and TOR2 were used as controls. Drug resistant assay was performed at 37° C. in the presence of amphotericin B (except OSI-027). (FIG. 4C) Systematic mutational analysis of L2185 on drug resistance. tort-dg cells expressing WT or mutant TOR2-mTOR carrying all possible mutations at L2185 were serially diluted by 10-fold and tested for sensitivity to different mTOR kinase inhibitors at 37° C.
(§2) To enhance yeast cell permeability, log phase W303 tort-dg cells were spread evenly on SD-Leu agarose plates. After drying, small sterile filter discs were placed on the surface and 5 μl of indicated mTOR inhibitors or DMSO were applied to each disc with or without adding 5 μl of amphotericin B (10 μM), miconazole (50 μM) or caspofungin (50 μM). Plates were incubated at 37° C. for 3 day. Drug resistance profiles of TOR2-mTOR mutant cells were determined by the spotting assay. For this assay, 10-fold serial dilutions of cells were spotted on SD-leu plates in the presence of indicated mTOR inhibitors with or without amphotericin B (200 nM) and incubated at 37° C. for 3 day.

TOR2-mTOR L2185A mutant = experiment: Yeast spotting assay for drug resistance, TOR2-mTOR L2185A; type: cell-based, S. cerevisiae; conditions: 37° C., amphotericin B present (except OSI-027)
Source text: as §1, §2

[1] = system: xenograft tumors derived from SW480 cells expressing WT mTOR; experiment: SW480 xenograft tumor model, WT mTOR; type: in vivo, mice
Description: FIGS. 6A-E. L2185A mutation renders resistance of xenograft tumors to mTOR kinase inhibitors. (FIG. 6A) Mice bearing xenograft tumors derived from SW480 cells expressing WT mTOR were administered with INK128 at 1 mg/kg or 0.3 mg/kg, once daily via intraperitoneal injection. Shown are representative animals and excised tumors after drug treatment. (FIG. 6B) Same as FIG. 6A except xenograft tumors were derived from SW480 carrying homozygous mTOR(L2185A) alleles. (FIG. 6C) Tumor volume measurement for SW480 xenograft tumors expressing mTOR (WT) (expressed as means±SD; n=8, *P<0.01, vs. vehicle control). (FIG. 6D) Tumor volume measurement for SW480 xenograft tumors expressing mTOR(L2185A) mutant (expressed as means±SD; n=8). (FIG. 6E) Tissue extracts from xenograft tumors at the end of treatment with or without 1 mg/kg INK128 were analyzed for the level of P-S6K, S6K, P-S6, S6, P-4E-BP1, 4E-BP1, P-AKT and AKT was analyzed by immunoblot. Six tumor samples from each animal group were shown with each lane representing an individual tumor sample.
Female athymic NCr-nu/nu mice (4-6 weeks old) were obtained from Taconic Farms. […] Tumor volume was calculated by the following formula: tumor volume (mm^3)=(shorter diameter^2× longer diameter)/2 and are presented as means±SD (n=8) (Zhang, Y., and Zheng, X. (2012). Cell Cycle 11, 594-603). […]

## CC(C)n1nc(-c2ccc3oc(N)nc3c2)c2c(N)ncnc21 [INK128]
TOR2-mTOR L2185C mutant
  drug resistance/sensitivity of TOR2-mTOR L2185C mutant yeast: confer resistance; also recorded: conferring resistance
TOR2-mTOR L2185A mutant
  drug resistance/sensitivity of TOR2-mTOR L2185A mutant yeast: confer resistance; also recorded: conferring resistance
[1]; 1 mg/kg or 0.3 mg/kg once daily, intraperitoneal injection
  growth of WT mTOR xenograft tumors: strongly attenuates growth
[1]; 1 mg/kg, tumor extracts at end of treatment, immunoblot
  mTOR signaling in WT mTOR xenograft tumors: complete blockadge of mTOR signaling
